Data set [1] can be described thus: chemical recovery from spiked human plasma; higher = better extraction. As to conditions: pooled human plasma.
Data set [2] is described as follows: chemical recovery by SPE of plasma after PDMS sampling; higher = better extraction. To be noted: pooled human plasma, extraction method: HLB SPE of plasma after PES.
[3] abbreviates: extraction method: PES+SPE (3 d PDMS equilibration then HLB SPE).
Setting [4] is: extraction method: SPE only (HLB 96-well).
[5] abbreviates: extraction method: SPE only (HLB 96-well), PES comparison experiment.
[6] abbreviates: extraction method: solvent precipitation (ACN + hexane).

± gives the standard deviation.
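Throughout, for chemical recovery by SPE of plasma after PDMS sampling: over 400 spiked chemicals quantified by LC-HRMS or GC-HRMS via internal standard calibration, recovery relative to spike mix added to unspiked plasma extract to correct matrix effects.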

Consider `CCOC(=O)[C@H](CCc1ccccc1)N[C@@H](C)C(=O)N1CCC[C@H]1C(=O)O` [Enalapril], for which the chemical recovery in data set [1] (setting [3]) was determined as 42.2 ± 3.9%; in data set [1] (setting [4]), 36.2 ± 1.4%; in data set [1] (setting [5]) it was 37.8 ± 5.6%; in data set [1] (setting [6]), 70.5 ± 3.8%. Also, the “chemical recovery by SPE of plasma” value in data set [2] (equilibration time (d): 1) turned out to be 43.2 ± 7.6%; in data set [2] (equilibration time (d): 3) it was 47 ± 2.3%; in data set [2] (equilibration time (d): 6), 44.9 ± 4.6%.
On to `CC[C@H]1OC(=O)[C@H](C)[C@@H](O[C@H]2C[C@@](C)(OC)[C@@H](O)[C@H](C)O2)[C@H](C)[C@@H](O[C@@H]2O[C@H](C)C[C@H](N(C)C)[C@H]2O)[C@](C)(O)C[C@@H](C)C(=O)[C@H](C)[C@@H](O)[C@]1(C)O` [Erythromycin], for which the chemical recovery in data set [1] (setting [3]) is 4.25 ± 0.61%; in data set [1] (setting [4]), 10.9 ± 8.2%; in data set [1] (setting [5]), 3.18 ± 1.2%; in data set [1] (setting [6]), 66 ± 3.4%. Besides, the “chemical recovery by SPE of plasma” value in data set [2] (equilibration time (d): 3) worked out at 11.9 ± 6.8%; in data set [2] (equilibration time (d): 6) it was 6.49 ± 3.8%.
Consider `COc1cc([C@@H]2c3cc4c(cc3[C@@H](O[C@@H]3O[C@@H]5CO[C@@H](C)O[C@H]5[C@H](O)[C@H]3O)[C@H]3COC(=O)[C@H]23)OCO4)cc(OC)c1O` [Etoposide], for which the chemical recovery in data set [1] (setting [3]) was determined as 54.9 ± 4.7%; in data set [1] (setting [6]), 35.5 ± 10%. Besides, the results for the “chemical recovery by SPE of plasma” value in data set [2] (equilibration time (d): 1), in data set [2] (equilibration time (d): 3) and in data set [2] (equilibration time (d): 6) were 36.8 ± 3.4%, 40.9 ± 6.5% and 38.4 ± 0.53%, respectively.
In data set [1] (setting [5]), `C[C@@H]1C[C@H]2[C@@H]3C[C@H](F)C4=CC(=O)C=C[C@]4(C)[C@@]3(F)[C@@H](O)C[C@]2(C)[C@@]1(O)C(=O)CO` [Flumethasone] registered a chemical recovery of 47.9 ± 6.4%. Further, the “chemical recovery by SPE of plasma” value came to 46.8 ± 5.2% in data set [2] (equilibration time (d): 1), 51.4 ± 1.9% in data set [2] (equilibration time (d): 3) and 44.3 ± 2.9% in data set [2] (equilibration time (d): 6).
With `NS(=O)(=O)c1cc(C(=O)O)c(NCc2ccco2)cc1Cl` [Furosemide], the chemical recovery is 44.9 ± 5.1% in data set [1] (setting [3]), 48.4 ± 7.2% in data set [1] (setting [4]), 50 ± 6.5% in data set [1] (setting [5]) and 69.3 ± 6.1% in data set [1] (setting [6]). In addition, the “chemical recovery by SPE of plasma” value in data set [2] (equilibration time (d): 1) worked out at 55.5 ± 12%; in data set [2] (equilibration time (d): 3) it was 70.9 ± 4.3%; in data set [2] (equilibration time (d): 6) it was 66.2 ± 5.9%.
As to `NCC1(CC(=O)O)CCCCC1` [Gabapentin], the chemical recovery in data set [1] (setting [4]) came to 14.7 ± 7.2%; in data set [1] (setting [5]) it was 0.0969 ± 0.19%. Besides, the “chemical recovery by SPE of plasma” value in data set [2] (equilibration time (d): 6) is 0.00483 ± 0.0084%.
On to `O=c1c(-c2ccc(O)cc2)coc2cc(O)cc(O)c12` [Genistein], for which the chemical recovery in data set [1] (setting [3]) worked out at 55.5 ± 1.2%; in data set [1] (setting [4]), 49.1 ± 3.9%; in data set [1] (setting [5]), 46.4 ± 4%; in data set [1] (setting [6]), 48.3 ± 10%. For the same compound, the “chemical recovery by SPE of plasma” value in data set [2] (equilibration time (d): 1) was determined as 46.2 ± 7.8%; in data set [2] (equilibration time (d): 3), 50 ± 4.5%; in data set [2] (equilibration time (d): 6), 47 ± 3.7%.
With `COc1ccc(Cl)cc1C(=O)NCCc1ccc(S(=O)(=O)NC(=O)NC2CCCCC2)cc1` [Glibenclamide], the results for the chemical recovery in data set [1] (setting [5]) and in data set [1] (setting [6]) were 42.1 ± 7% and 74.9 ± 2.6%, respectively. The “chemical recovery by SPE of plasma” value amounted to 43.4 ± 2.1% in data set [2] (equilibration time (d): 3) and 38 ± 3.8% in data set [2] (equilibration time (d): 6).
Take `CCC1=C(C)CN(C(=O)NCCc2ccc(S(=O)(=O)NC(=O)NC3CCC(C)CC3)cc2)C1=O` (stereo not drawn) [Glimepiride]: the chemical recovery in data set [1] (setting [3]) was 36.8 ± 4.8%; in data set [1] (setting [4]), 32 ± 1.9%; in data set [1] (setting [5]) it was 42.6 ± 4.8%; in data set [1] (setting [6]) it was 71.4 ± 5.3%. In addition, the “chemical recovery by SPE of plasma” value was found to be 46.6 ± 3.4% in data set [2] (equilibration time (d): 1), 45.2 ± 1.8% in data set [2] (equilibration time (d): 3) and 42.1 ± 3% in data set [2] (equilibration time (d): 6).
In the case of `NC(=O)N=C(N)N` [Guanylurea], in data set [1] (setting [5]), the chemical recovery turned out to be 1.06 ± 1.4%. For the same compound, the results for the “chemical recovery by SPE of plasma” value in data set [2] (equilibration time (d): 1), in data set [2] (equilibration time (d): 3) and in data set [2] (equilibration time (d): 6) were 0.503 ± 1.2%, 0.581 ± 0.1% and 0.912 ± 0.18%, respectively.
On to `COc1ccc2c(c1)c(CC(=O)O)c(C)n2C(=O)c1ccc(Cl)cc1` [Indometacin], for which the values for the chemical recovery in data set [1] (setting [3]), in data set [1] (setting [4]) and in data set [1] (setting [5]) were 33.6 ± 5.2%, 33.3 ± 1.8% and 31 ± 6%, respectively. Moreover, the “chemical recovery by SPE of plasma” value in data set [2] (equilibration time (d): 3) turned out to be 41.1 ± 4.4%; in data set [2] (equilibration time (d): 6) it was 35.8 ± 3.6%.
Turning to `CC(C(=O)O)c1cccc(C(=O)c2ccccc2)c1` (stereo not drawn) [Ketoprofen], the chemical recovery in data set [1] (setting [3]) turned out to be 56.1 ± 6%; in data set [1] (setting [4]) it was 46.1 ± 2.4%; in data set [1] (setting [5]), 53.1 ± 4.2%; in data set [1] (setting [6]) it was 68.4 ± 3.2%. The figures for the “chemical recovery by SPE of plasma” value in data set [2] (equilibration time (d): 1), in data set [2] (equilibration time (d): 3) and in data set [2] (equilibration time (d): 6) were 47.5 ± 5.5%, 54 ± 2.6% and 48.2 ± 2.2%, respectively.
Take `CC(CCc1ccccc1)NCC(O)c1ccc(O)c(C(N)=O)c1` (stereo not drawn) [Labetalol]: the chemical recovery amounted to 47.4 ± 3.7% in data set [1] (setting [3]), 55.6 ± 8.6% in data set [1] (setting [4]), 51.3 ± 4.4% in data set [1] (setting [5]) and 70.5 ± 3.8% in data set [1] (setting [6]). The “chemical recovery by SPE of plasma” value worked out at 46.4 ± 3.9% in data set [2] (equilibration time (d): 1), 50.6 ± 3.4% in data set [2] (equilibration time (d): 3) and 44.8 ± 2.3% in data set [2] (equilibration time (d): 6).

For the origin of these results see the supplement of paper PMC10702517.
